# Results as given in patent US10201588B2, “Materials and methods of treating dyslipidemia” (UNIVERSITY OF MIAMI, priority 2017, dated 2019).
# Marks after values point to notes of the source that are not given here.
# Key:
# T1D rats [1] = assay: Plasma metabolites, lipids, glucose regulatory hormones and chemokines in T1D rats; assay type: in vivo, rat
# Procedure: T1 Diabetes Animal Model. Wistar rats (male, 200-250 g, Envigo RMS, Inc.) were rendered diabetic with a single dose of streptozotocin (STZ, 50 mg/kg body weight, i.p.). Once rats became hyperglycemic (>350 mg/dl plasma glucose, usually 3-4 days post STZ injection), they were divided into two groups, with and without treatment with the GHRH antagonist MIA-602 ([…], s.c.) administered three times a week for 14 weeks after establishment of diabetes. Untreated animals received vehicle alone with the same regimen. Upon completion of the 14 weeks period, animals were placed in metabolic cages for 3 days for adaptation, allowing them free movement, water and food intake. During the entire experiment, rats were fed regular rat chow (Teklad Diet, Madison, Wis.) and received water ad libitum. On the third day in the metabolic cages, food and water intake was monitored for a period of 24 hours. 24-hour urine specimens were also collected, centrifuged at 400×g for 5 minutes for particulate removal, aliquoted and stored at −80° C. Animals were then euthanized in the morning around 10 am in a fed state, under deep anesthesia with isoflurane, by exsanguination, followed by removal of vital organs. Plasma was separated from heparinized blood samples, aliquoted and saved at −80° C. for further analysis. Rats were handled according to high ethical and scientific standards for laboratory animals, and our protocol was reviewed and approved by the Institutional Animal Care and Use Committee at the Medical College of Georgia at Augusta University.
# (§1) Determination of metabolites. ApoB-48 lipoprotein was measured in plasma samples from rats and in culture medium supernatant from IEC by the use of a commercial ELISA kit (MyBioSource). The VLDL/LDL Cholesterol Assay kit (Abcam), the Total Cholesterol Assay kit (Wako) and the PicoProbe Triglyceride Quantification Assay Kit (Abcam) were used for analysis of VLDL/LDL fractions, total cholesterol and triglycerides in plasma samples. Albumin and creatinine levels in urine were analyzed by the use of Nephrat II and Creatinine Companion (Exocell) assay kits, respectively. Chemokines and glucose regulatory hormones (MCP-1, insulin, amylin, GIP and glucagon) were analyzed using the MILLIPLEX MAP Rat Metabolic Hormone Magnetic Bead Panel—Metabolism Multiplex Assay (RMHMAG-84K, EMD Millipore). Levels of growth hormone (GH) were assay with Rat Growth Hormone ELISA kit (EMD Millipore). Glucose levels were measured in blood by AlphaTRAK Blood Glucose Monitoring System.
# GHRH receptor = assay: Western blot of GHRH receptor expression in jejunum-ileum of T1D rats; assay type: in vivo, rat; settings: diabetic rats, MIA-602 25 μg/kg s.c. three times a week for fourteen weeks, vs vehicle diabetic
# Procedure: (§2) T1 Diabetes Animal Model. Wistar rats (male, 200-250 g, Envigo RMS, Inc.) were rendered diabetic with a single dose of streptozotocin (STZ, 50 mg/kg body weight, i.p.). Once rats became hyperglycemic (>350 mg/dl plasma glucose, usually 3-4 days post STZ injection), they were divided into two groups, with and without treatment with the GHRH antagonist MIA-602 ([…], s.c.) administered three times a week for 14 weeks after establishment of diabetes. Untreated animals received vehicle alone with the same regimen. Upon completion of the 14 weeks period, animals were placed in metabolic cages for 3 days for adaptation, allowing them free movement, water and food intake. […] On the third day in the metabolic cages, food and water intake was monitored for a period of 24 hours. […]
# (§3) The entire small intestine was removed and its length was measured from the pylorus to the ileocecal junction. […] Proteins were detected with the following antibodies: GHRH receptor (Abcam), GLP-1 receptor (Santa Cruz Inc), α-sma (Sigma-Aldrich), or β-actin (Sigma-Aldrich). Data obtained from Western blots were processed by ImageJ quantification software.
# T1D was induced in Wistar rats (male, 320-350 g) with intraperitoneal injection of a single dose of STZ (50 mg/kg body weight). […] The entire small intestine was removed from rats, and its length was measured from the pylorus to the ileocecal junction. […]
# GLP-1 receptor = assay: Western blot of GLP-1 receptor expression in T1D rats; assay type: in vivo, rat; settings: MIA-602 treatment vs augmented expression in T1D, FIG. 3A
# Procedure: (§4) T1 Diabetes Animal Model. Wistar rats (male, 200-250 g, Envigo RMS, Inc.) were rendered diabetic with a single dose of streptozotocin (STZ, 50 mg/kg body weight, i.p.). Once rats became hyperglycemic (>350 mg/dl plasma glucose, usually 3-4 days post STZ injection), they were divided into two groups, with and without treatment with the GHRH antagonist MIA-602 ([…], s.c.) administered three times a week for 14 weeks after establishment of diabetes. Untreated animals received vehicle alone with the same regimen. Upon completion of the 14 weeks period, animals were placed in metabolic cages for 3 days for adaptation, allowing them free movement, water and food intake. During the entire experiment, rats were fed regular rat chow (Teklad Diet, Madison, Wis.) and received water ad libitum. On the third day in the metabolic cages, food and water intake was monitored for a period of 24 hours. 24-hour urine specimens were also collected, centrifuged at 400×g for 5 minutes for particulate removal, aliquoted and stored at −80° C. […]
# as §3
# [2] = test system: Rat small intestinal epithelial cells (IEC-6); assay: ApoB-48 lipoprotein secretion by cultured intestinal epithelial cells challenged with oleic acid; assay type: cell-based
# Procedure: Cell culture. Rat small intestinal epithelial cells (IEC-6, ATCC® CRL-1592™) were grown in 6-well plates in DMEM medium supplemented with 10% fetal bovine serum (heat inactivated FBS, Gibco/Invitrogen), 1 mM sodium pyruvate, 2 mM L-alanyl-L-glutamine (GLUTAMAX I), 5 μg/ml insulin (Sigma-Aldrich), 100 U/ml penicillin and 100 μg/ml streptomycin at 37° C. in a 5% CO2 atmosphere. For all experiments, cells up to passage 6 were used for all experiments.
# Peptide Analogs Preparation. GHRH agonist JI-34, and GHRH antagonist MIA-602 were synthesized in the laboratory of A.V.S. (23, 24) and dissolved initially in DMSO before dilution with incubation medium. The final concentration of DMSO in the medium never exceeded 0.1% v/v.
# Assessment of ApoB-48 lipoprotein secretion by cultured intestinal epithelial cells. Upon confluence, cells were washed twice with serum-free DMEM medium, upon which fresh serum-free medium, supplemented with or without 5 μg/ml insulin was added. After 2 hrs of equilibration, cells were pre-treated for 1 hour with the GHRH receptor agonist JI-34 (1 μM, dissolved in DMSO), while control cells received vehicle alone, followed by addition of the GLP-1 receptor agonist (Exendin-4, 10 nM, Sigma-Aldrich). After 3 hrs, cells were treated with 0.5 mM oleic acid (OA) complexed to BSA (Sigma-Aldrich) for 3 hrs, to allow for lipid loading into ApoB-48 lipoproteins. Additional cells were pre-incubated or not for 1 h with the GLP-1 receptor antagonist Exendin 9-39 (100 nM, Sigma-Aldrich), or the GHRH antagonist MIA-602 (1 μM, dissolved in DMSO). Upon completion of treatment, medium was collected, centrifuged at 1,000×g for 3 minutes, and saved at −80° C. for further analysis.
# as §1
# T1D rats [3] = assay: Kidney damage in T1D rats: proteinuria (albumin/creatinine ratio) and α-sma expression in kidney cortex; assay type: in vivo, rat; settings: MIA-602 treatment vs vehicle-treated T1D
# Procedure: as §2
# Determination of metabolites. ApoB-48 lipoprotein was measured in plasma samples from rats and in culture medium supernatant from IEC by the use of a commercial ELISA kit (MyBioSource). The VLDL/LDL Cholesterol Assay kit (Abcam), the Total Cholesterol Assay kit (Wako) and the PicoProbe Triglyceride Quantification Assay Kit (Abcam) were used for analysis of VLDL/LDL fractions, total cholesterol and triglycerides in plasma samples. Albumin and creatinine levels in urine were analyzed by the use of Nephrat II and Creatinine Companion (Exocell) assay kits, respectively. […]
# [4] = test system: thoracic aortas of T1D rats; assay: Vasodilation of thoracic aortic rings from T1D rats (acetylcholine, sodium nitroprusside); assay type: in vivo, rat; settings: three groups of animals compared, FIG. 5E
# Procedure: FIG. 5A is a graph showing the measurement of proteinuria in urine from control, T1D and MIA-602/T1D rats, expressed as the albumin/creatinine ratio (n=5 per group). FIG. 5B: Upper panel: representative immunoblot of α-smooth muscle actin (α-sma) expression (a marker of fibroblast activation and renal fibrosis) in homogenates of kidney cortex.
# Therefore, MCP-1 levels in the serum were analyzed. […] Both dyslipidemia and increased MCP-1 plasma levels represent risk factors for vascular endothelial dysfunction. […] Responses to the endothelial-independent vasodilator sodium nitroprusside (SNP) were similar amongst the three groups of animals (FIG. 5E).
# [5] = test system: Dipeptidyl-Peptidase 4 (DPP4); assay: Plasma DPP4 activity in T1D rats (ELISA kit); assay type: in vivo, rat; settings: non-fasting state, MIA-602 treatment, FIG. 6
# Procedure: Treatment with MIA-602 blunted this effect. DPP4 activity values were measured in plasma obtained from rats in the non-fasting state, by the use of a commercial ELISA kit (MyBioSource).
# as §4, with “C. Animals were then euthanized in the morning around 10 am in a fed state, under deep anesthesia with isoflurane, by exsanguination, followed by removal of vital organs.” for “C.”
# [6] = test system: lung microvascular endothelial cells; settings: reference (24); cited from earlier work
substance,measurement,setting,value
Phac-Ada-Ty^1-D-Arg^2-Asp^3-Ala^4-Ile^5-Phe(F)5^6-Thr^7-Ala^8-Har^9-Tyr(me)^10-His^11-Orn^12-Val^13-Leu^14-Abu^15-Glu^16-Leu^17-Ser^18-Ala^19-His^20-Orn^21-Leu^22-Leu^23-Glu^24-Asp^25-Ile^26-Nle^27-D-Arg^28-Har^29-NH2 [MIA-602],Plasma levels of apolipoprotein B-48 (ApoB-48),"T1D rats [1]; T1D rats treated with MIA-602, FIG. 2D",blunted
same,Plasma levels of GIP,"T1D rats [1]; T1D rats treated with MIA-602, not significant vs vehicle-treated diabetic (85.7±37.5)",46.7 ± 9.6 pg/mL
same,Lipemic plasma (visual),"T1D rats [1]; T1D rats treated with MIA-602 vs vehicle, FIG. 2A",significant reduction
same,Total cholesterol levels in plasma,"T1D rats [1]; T1D rats treated with MIA-602 vs vehicle-treated STZ diabetic animals, FIG. 2B",lower
same,VLDL/LDL-cholesterol in plasma,"T1D rats [1]; T1D rats treated with MIA-602 vs vehicle-treated STZ diabetic animals, FIG. 2C",lower
same,Plasma glucagon,"T1D rats [1]; T1D rats, MIA-602 25 μg/kg s.c. three times a week for 14 weeks, p < 0.02 vs Diabetes",55.9 ± 34.3^c pg/ml
same,Plasma GLP-1,"T1D rats [1]; T1D rats, MIA-602 25 μg/kg s.c. three times a week for 14 weeks, p < 0.05 vs Diabetes",48.7 ± 25.2^e pg/ml
same,MCP-1 serum levels,"T1D rats [1]; T1D rats, MIA-602 treatment, FIG. 5C",reduced
same,Plasma triglyceride levels,"T1D rats [1]; T1D rats, MIA-602 treatment, p<0.01 vs. STZ (89.3±4.2), n=6 per group",82.3 ± 2.8 mg/dL
same,Plasma glucose,"T1D rats [1]; T1D rats, non-fasting, MIA-602 25 μg/kg s.c. three times a week for 14 weeks, no insulin",603 ± 137.4^b mg/dl
same,Blunting of GHRH receptor expression in jejunum-ileum (Western blot densitometry),GHRH receptor,approximately 5 fold
same,GLP-1 receptor expression in distal small intestine and liver,GLP-1 receptor,unaffected
same,ApoB-48 released into medium,"[2]; oleic acid (0.5 mM)-treated IEC, no insulin, agent alone at 1 μM, no GLP-1 agonist, oleic acid alone 6.67±0.26",3.43 ± 0.15 µg/mL
same,ApoB-48 released into medium,"[2]; oleic acid-treated IEC, MIA-602 (1 μM) in the presence of JI-34 and exendin-4",4.47 ± 0.46 µg/mL
same,Proteinuria (albumin/creatinine ratio),T1D rats [3]; FIG. 5A,reduced
same,α-sma expression in kidney cortex,"T1D rats [3]; Western blot, FIG. 5B",reduced
same,Responses to the endothelial-independent vasodilator sodium nitroprusside (SNP),[4],similar
same,Plasma Dipeptidyl-Peptidase 4 (DPP4) activity,[5],reduced
same,Barrier function,[6],slightly decreased
exendin 9-39,ApoB-48 released into medium,"[2]; oleic acid-treated IEC, exendin 9-39 (100 nM) together with MIA-602 (1 μM), MIA-602 alone 3.43±0.15",7.56 ± 0.53 µg/mL
same,ApoB-48 released into medium,"[2]; oleic acid-treated IEC, pretreatment 100 nM, then exendin-4 (10 nM), exendin-4 alone 4.44±0.36",8.78 ± 0.34 µg/mL
exendin-4: GLP-1 receptor agonist (Sigma-Aldrich),ApoB-48 released into medium,"[2]; oleic acid (0.5 mM)-treated IEC, no insulin, agent alone at 10 nM, oleic acid alone 6.67±0.26, medium alone 3.48±0.98",4.44 ± 0.36 µg/mL
